From patent publication US7763605B2, “[1,4]benzodiazepines as vasopressin V2 receptor antagonists” (Janssen Pharmaceutica, N.V., priority 2004, dated 2010)
Structures can show the parent of a compound that is named as a salt.

How the values were obtained:
human V2 receptor [1] = molecular target: T1, human V2 receptor (Homo sapiens, UniProt P30518); assay: In vitro recombinant vasopressin receptor binding assay (3H-arginine vasopressin displacement), V2; details: for IC50: cloned human receptor membranes from HEK-293 cells
T1 construct: expressed in transfected cells; host or cells: HEK-293
T1 sequence (P30518 whole entry): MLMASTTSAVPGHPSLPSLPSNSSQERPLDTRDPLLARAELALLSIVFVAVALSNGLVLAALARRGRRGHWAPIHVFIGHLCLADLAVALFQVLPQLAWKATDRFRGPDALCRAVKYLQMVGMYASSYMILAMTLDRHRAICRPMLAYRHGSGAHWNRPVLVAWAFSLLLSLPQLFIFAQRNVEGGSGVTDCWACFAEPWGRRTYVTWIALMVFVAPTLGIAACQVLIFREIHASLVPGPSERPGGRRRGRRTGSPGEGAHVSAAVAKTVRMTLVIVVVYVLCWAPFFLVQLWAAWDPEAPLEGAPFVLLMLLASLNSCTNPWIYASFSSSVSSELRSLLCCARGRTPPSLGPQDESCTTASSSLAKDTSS
Protocol: (§1) Compounds were assessed for their ability to displace ^3H-arginine vasopressin from the human V-1 or V-2 receptor in HEK-293 cells. Assay buffer is 50 mM Tris-Cl, 5 mM MgCl2, 0.1% BSA (pH 7.5) containing 5 ug/ml of aprotinin, leupeptin, pepstatin, 50 ug/ml bacitracin, and 1 mM Pefabloc. ^3H-vasopressin is ^3H-arginine-8-vasopressin (68.5 Ci/mmol, final concentration in assay is 0.65-0.75 nM). Into wells of 96-well round bottom polypropylene plates were added buffer, test compound, membrane (containing cloned human V-1 or V-2 receptor), and ^3H-vasopressin. The reaction plates were allowed to sit at room temperature for one hour. The samples were filtered through Unifilter GF/C plates (presoaked in 0.3 polyethyleneimine). The plates were washed 5 times with cold physiological saline containing 0.05% Tween 20. After drying, the bottom of the filter plates were sealed and 0.025 ml of Microscint-20 was added to each filter. The top of the plate was sealed, and the plate was counted. Non-specific binding was determined by the addition of 1.25 uM arginine-8-vasopressin in those wells.

human V-1 receptor (V1a) = molecular target: T2, human V-1 receptor (V1a) (Homo sapiens, UniProt P37288); assay: In vitro recombinant vasopressin receptor binding assay (3H-arginine vasopressin displacement), V1a; details: 0.2 μM test compound, cloned human receptor membranes from HEK-293 cells; for inhibition at 0.2 µM: read-out: Binding V1a (% inhib @ 0.2 μM)
T2 construct: expressed in transfected cells; host or cells: HEK-293 (membranes)
T2 sequence (P37288 whole entry): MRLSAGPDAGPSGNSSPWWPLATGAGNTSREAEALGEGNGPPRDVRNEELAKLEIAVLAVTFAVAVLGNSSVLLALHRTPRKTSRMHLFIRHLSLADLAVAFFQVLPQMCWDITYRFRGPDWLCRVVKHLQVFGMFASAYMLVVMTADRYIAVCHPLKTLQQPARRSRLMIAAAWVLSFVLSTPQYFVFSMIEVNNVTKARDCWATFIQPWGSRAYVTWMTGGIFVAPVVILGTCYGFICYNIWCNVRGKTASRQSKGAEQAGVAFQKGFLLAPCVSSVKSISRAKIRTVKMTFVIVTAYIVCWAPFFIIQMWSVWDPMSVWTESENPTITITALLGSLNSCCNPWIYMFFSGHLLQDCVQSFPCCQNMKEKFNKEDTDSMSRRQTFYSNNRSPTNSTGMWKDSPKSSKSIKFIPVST
Protocol: as §1

human V2 receptor [2] = molecular target: T1, human V2 receptor; assay: Inhibition of AVP-induced cAMP accumulation in transfected HEK-293 cells expressing human V2 receptor; type: cell-based; details: AVP 1 nM, HEK-293 expressing human V2, read-out: Functional V2 (IC50; μM)
Protocol: HEK-293 cells were grown in DMEM media supplemented with 10% FBS and glutamine (Gibco BRL, Grand Island, N.Y.). Once transfected, the cells were passed biweekly by trypsinization and seeded into 96 well plates at 33,000 cells per well. HEK-293 were transfected with human V1a, V1b or V2 DNA using DMRIE-C reagent from Life Technologies, Inc., Grand Island, N.Y. Cells were tested for their responsiveness to vasopressin 48 h after transfection. Stable lines were generated by selecting cells grown in culture media containing geneticin (500 μg/mL, Life Technologies).
The accumulation of cAMP was measured in transfected HEK-293 expressing the human V2 receptor. The cells were cultured 4-7 d in 96-well plates. On the day of testing in this assay, cells were washed twice in assay media (DMEM/F12 containing 0.1% BSA). The cells were treated with the test compound for 5 min and then given AVP (1 nM) in assay media containing 1 mM isobutylmethylxanthine. After 5 min, 0.5 N HCl was added to disrupt the cells and solubilize cAMP. The cAMP content of 20 μL of the cell lysate in each well was measured using cAMP Flashplates (NEN Life Sciences). Data are expressed as pmol cAMP/well. While the assay is optimized to detect and quantitate antagonistic activity, agonistic activity would also be apparent at the higher concentrations of test compounds.
The data from the cAMP accumulation and the calcium mobilization assays are expressed as IC50 values as determined from dose response curves.

| Compound | IC50 (human V2 receptor [1]) [µM] | inhibition at 0.2 µM (human V-1 receptor (V1a)) [%] | IC50 (human V2 receptor [2]) [µM] | inhibition at 0.2 µM (human V2 receptor [1]; read-out: Binding V2 (% inhib @ 0.2 μM)) [%] | Binding V1a (% inhib @ 0.2 μM) (human V-1 receptor (V1a)) [%] |
| --- | --- | --- | --- | --- | --- |
| O=C(Nc1ccc(C(=O)N2C[C@@H](CO)N(Cc3ccccc3)Cc3ccccc32)c(Cl)c1)c1ccccc1-c1ccccc1 [Cpd 1, (S)-Biphenyl-2-carboxylic acid [4-(4-benzyl-3-hydroxymethyl-2,3,4,5-tetrahydro-benzo[e][1,4]diazepine-1-carbonyl)-3-chloro-phenyl]-amide] | 0.5 | 1 |  |  |  |
| CS(=O)(=O)OC[C@@H]1CN(C(=O)c2ccc(NC(=O)c3ccccc3-c3ccccc3)cc2Cl)c2ccccc2CN1S(C)(=O)=O [Cpd 8, (S)-methanesulfonic acid 1 {4-[(biphenyl-2-carbonyl)-amino]-2chloro-benzoyl}-4-methanesulfonyl-2,3,4,5-tetrahydro-1H-benzo[e][1,4]diazepin-3-ylmethyl ester] | 0.4 | 0 | 1.08 |  |  |
| CCCS(=O)(=O)N1Cc2ccccc2N(C(=O)c2ccc(NC(=O)c3ccccc3-c3ccccc3)cc2Cl)C[C@H]1CO [Cpd 10, (S)-Biphenyl-2-carboxylic acid {3-chloro-4-[3-hydroxymethyl-4-(propane-1-sulfonyl)-2,3,4,5-tetrahydrobenzo[e][1,4]diazepine-1-carbonyl]-phenyl}-amide] | 0.065 | 2 | 0.03 |  |  |
| O=C(Nc1ccc(C(=O)N2C[C@@H](CO)N(S(=O)(=O)c3ccccc3)Cc3ccccc32)c(Cl)c1)c1ccccc1-c1ccccc1 [Cpd 11, (S)-Biphenyl-2-carboxylic acid [4-(4-benzenesulfonyl-3-hydroxymethyl-2,3,4,5-tetrahydrobenzo[e][1,4]diazepine-1-carbonyl)-3-chloro-phenyl]-amide] | 0.23 | 0 | 0.773 |  |  |
| (S)-Biphenyl-2-carboxylic acid [3-chloro-4-(4-methyl-3-morpholino-4-ylmethyl-2,3,4,5-tetrahydrobenzo[e][1,4]diazepine-1-carbonyl)-phenyl]-amide ditrifluoroacetate [Cpd 5] |  |  |  |  | 0 |

The next lines start with results.

| IC50 (human V2 receptor [1]) [µM] | inhibition at 0.2 µM (human V-1 receptor (V1a)) [%] | IC50 (human V2 receptor [2]) [µM] | inhibition at 0.2 µM (human V2 receptor [1]; read-out: Binding V2 (% inhib @ 0.2 μM)) [%] | Compound | Binding V1a (% inhib @ 0.2 μM) (human V-1 receptor (V1a)) [%] |
| --- | --- | --- | --- | --- | --- |
| 0.24 | 0 | 0.28 |  | CSC[C@@H]1CN(C(=O)c2ccc(NC(=O)c3ccccc3-c3ccccc3)cc2Cl)c2ccccc2CN1C [Cpd 2, (S)-Biphenyl-2-carboxylic acid [3-chloro-4-(4-methyl-3-methylsulfanylmethyl-2,3,4,5-tetrahydrobenzo[e][1,4]diazepine-1-carbonyl)-phenyl]-amide] |  |
| 0.34 | 0 | 0.71 |  | CN1Cc2ccccc2N(C(=O)c2ccc(NC(=O)c3ccccc3-c3ccccc3)cc2Cl)C[C@@H]1CN1CCCC1 [Cpd 3, (S)-Biphenyl-2-carboxylic acid [3-chloro-4-(4-methyl-3-pyrrolidin-1-ylmethyl-2,3,4,5-tetrahydrobenzo[e][1,4]diazepine-1-carbonyl)-phenyl]-amide ditrifluoroacetate] |  |
|  | 0 | > 10 | 22 | CN1Cc2ccccc2N(C(=O)c2ccc(NC(=O)c3ccccc3-c3ccccc3)cc2Cl)C[C@H]1COC1CCCC1 [Cpd 4, (S)-Biphenyl-2-carboxylic acid [3-chloro-4-(3-cyclopentyloxymethyl-4-methyl-2,3,4,5-tetrahydrobenzo[e][1,4]diazepine-1-carbonyl)-phenyl]-amide trifluoroacetate] |  |
| 0.066 | 0 | 0.025 |  | COC[C@@H]1CN(C(=O)c2ccc(NC(=O)c3ccccc3-c3ccccc3)cc2Cl)c2ccccc2CN1C [Cpd 6, (S)-Biphenyl-2-carboxylic acid [3-chloro-4-(3-methoxymethyl-4-methyl-2,3,4,5-tetrahydrobenzo[e][1,4]diazepine-1-carbonyl)-phenyl]-amide trifluoroacetate] |  |
| 0.05 | 4 | 0.02 |  | CS(=O)(=O)N1Cc2ccccc2N(C(=O)c2ccc(NC(=O)c3ccccc3-c3ccccc3)cc2Cl)C[C@H]1CO [Cpd 7, (S)-Biphenyl-2-carboxylic acid [3-chloro-4-(3-hydroxymethyl-4-methanesulfonyl-2,3,4,5-tetrahydrobenzo[e][1,4]diazepine-1-carbonyl)-phenyl]-amide] |  |
| 0.045 | 2 | 0.04 |  | CC(=O)OC[C@@H]1CN(C(=O)c2ccc(NC(=O)c3ccccc3-c3ccccc3)cc2Cl)c2ccccc2CN1C(C)=O [Cpd 9, (S)-Acetic acid 4-acetyl-1-{4-[(biphenyl-2-carbonyl)-amino]-2-chloro-benzoyl}-2,3,4,5-tetrahydro-1H-benzo[e][1,4]diazepin-3-ylmethyl ester] |  |
| 0.028 | 6 | 0.02 |  | CC(=O)N1Cc2ccccc2N(C(=O)c2ccc(NC(=O)c3ccccc3-c3ccccc3)cc2Cl)C[C@H]1CO [Cpd 12, (S)-Biphenyl-2-carboxylic acid [4-(4-acetyl-3-hydroxymethyl-2,3,4,5-tetrahydro-benzo[e][1,4]diazepine-1-carbonyl)-3-chloro-phenyl]-amide] |  |
